In brackets after ≈: the same amount, converted by molar mass.
target: T1, SARS-CoV-2 nsp3-mac1 (Severe acute respiratory syndrome coronavirus 2, UniProt P0DTD1); test: biochemical; set-up: SARS-CoV-2 nsp3 macrodomain TR-FRET single point, per cent inhibition, n=2; settings: read-out: perc_inhibition_mean, batch_name=ASAP-0000482-001

| SMILES | inhibition at 49.75 µM | inhibition at 99.5 µM |
| --- | --- | --- |
| CC(C)[C@@H](Nc1ncnc2[nH]ccc12)C(=O)N(C)Cc1nnc2n1CCC2 [ASAP-0000482] | -8.89% | -6.14% |

tested on: not listed separately; test: Hepatic microsomal stability, HLM; type: in vitro ADME, human; settings: In vitro human liver microsomal stability

| SMILES | clint | perc_remaining | t_half |
| --- | --- | --- | --- |
| CC(C(=O)O)C(NC(=O)c1ncnc2[nH]ccc12)c1ccc(Br)cc1 (mixture of isomers) [ASAP-0008445] | 5.0 µL/min/mg | 103.0% | 338.5 min |
| COc1ccc(C(NC(=O)c2ncnc3[nH]ccc23)C(C)c2nnn[nH]2)cc1 (mixture of isomers) [ASAP-0010744] | 2.0 µL/min/mg | 92.0% | 798.7 min |
| COc1ccc2c(c1)CCN(c1ncnc3[nH]ccc13)[C@H]2C(C)C (racemic) [ASAP-0000502] | 60.0 µL/min/mg | 38.0% | 27.8 min |
| COc1ccc([C@H](CC(=O)O)NC(=O)c2ncnc3[nH]ccc23)cc1 (racemic) [ASAP-0000591] | 7.0 µL/min/mg | 87.0% | 240.4 min |
| O=C(Nc1cccc2c(C(=O)N[C@H]3c4ccccc4C[C@H]3C(=O)O)c[nH]c12)NC1CC1 (racemic) [ASAP-0000627] | 6.0 µL/min/mg | 88.0% | 279.8 min |

same assay, conditions: In vitro human liver microsomal stability; no cofactor

| SMILES | perc_remaining_no_cofactor |
| --- | --- |
| CC(C(=O)O)C(NC(=O)c1ncnc2[nH]ccc12)c1ccc(Br)cc1 (mixture of isomers) [ASAP-0008445] | 110.0% |
| COc1ccc(C(NC(=O)c2ncnc3[nH]ccc23)C(C)c2nnn[nH]2)cc1 (mixture of isomers) [ASAP-0010744] | 103.0% |
| COc1ccc2c(c1)CCN(c1ncnc3[nH]ccc13)[C@H]2C(C)C (racemic) [ASAP-0000502] | 103.0% |
| COc1ccc([C@H](CC(=O)O)NC(=O)c2ncnc3[nH]ccc23)cc1 (racemic) [ASAP-0000591] | 88.0% |
| O=C(Nc1cccc2c(C(=O)N[C@H]3c4ccccc4C[C@H]3C(=O)O)c[nH]c12)NC1CC1 (racemic) [ASAP-0000627] | 86.0% |

target: T1, SARS-CoV-2 nsp3-mac1; test: biochemical; type: biochemical; settings: SARS-CoV-2 nsp3 macrodomain TR-FRET single point; concentration 49.75 uM

| SMILES | perc_inhibition_mean |
| --- | --- |
| CC(C)[C@@H](Nc1ncnc2[nH]ccc12)C(=O)N(C)Cc1nnc2n1CCC2 [ASAP-0000482] | -8.89% |

same assay, conditions: SARS-CoV-2 nsp3 macrodomain TR-FRET single point; concentration 99.5 uM

| SMILES | perc_inhibition_mean |
| --- | --- |
| CC(C)[C@@H](Nc1ncnc2[nH]ccc12)C(=O)N(C)Cc1nnc2n1CCC2 [ASAP-0000482] | -6.138% |

tested on: not listed separately; test: LogD; settings: pH 7.4; In vitro LogD

| SMILES | logd |
| --- | --- |
| CC(C(=O)O)C(NC(=O)c1ncnc2[nH]ccc12)c1ccc(Br)cc1 (mixture of isomers) [ASAP-0008445] | 0.5 |
| COc1ccc(C(NC(=O)c2ncnc3[nH]ccc23)C(C)c2nnn[nH]2)cc1 (mixture of isomers) [ASAP-0010744] | 0.0 |
| COc1ccc2c(c1)CCN(c1ncnc3[nH]ccc13)[C@H]2C(C)C (racemic) [ASAP-0000502] | 4.33 |
| COc1ccc([C@H](CC(=O)O)NC(=O)c2ncnc3[nH]ccc23)cc1 (racemic) [ASAP-0000591] | -0.38 |
| O=C(Nc1cccc2c(C(=O)N[C@H]3c4ccccc4C[C@H]3C(=O)O)c[nH]c12)NC1CC1 (racemic) [ASAP-0000627] | -0.05 |

tested on: not listed separately; test: In vitro kinetic solubility; settings: In vitro kinetic solubility, ph 7.4

| SMILES | solubility_mean |
| --- | --- |
| CC(C(=O)O)C(NC(=O)c1ncnc2[nH]ccc12)c1ccc(Br)cc1 (mixture of isomers) [ASAP-0008445] | 386 µM |
| COc1ccc(C(NC(=O)c2ncnc3[nH]ccc23)C(C)c2nnn[nH]2)cc1 (mixture of isomers) [ASAP-0010744] | ≥ 400 µM |
| COc1ccc2c(c1)CCN(c1ncnc3[nH]ccc13)[C@H]2C(C)C (racemic) [ASAP-0000502] | 14 µM (≈ 4.51 µg/mL) |
| COc1ccc([C@H](CC(=O)O)NC(=O)c2ncnc3[nH]ccc23)cc1 (racemic) [ASAP-0000591] | ≥ 400 µM |
| O=C(Nc1cccc2c(C(=O)N[C@H]3c4ccccc4C[C@H]3C(=O)O)c[nH]c12)NC1CC1 (racemic) [ASAP-0000627] | ≥ 400 µM |

tested on: not listed separately; test: Permeability Papp (AB) MDR1/MDCKII; settings: In vitro MDR1-MDCKII permeability, A to B, mean

| SMILES | papp_a_to_b_mean |
| --- | --- |
| CC(C(=O)O)C(NC(=O)c1ncnc2[nH]ccc12)c1ccc(Br)cc1 (mixture of isomers) [ASAP-0008445] | 1.4 ×10⁻⁶ cm/s |
| COc1ccc2c(c1)CCN(c1ncnc3[nH]ccc13)[C@H]2C(C)C (racemic) [ASAP-0000502] | 7.0 ×10⁻⁶ cm/s |
| COc1ccc([C@H](CC(=O)O)NC(=O)c2ncnc3[nH]ccc23)cc1 (racemic) [ASAP-0000591] | 1.7 ×10⁻⁶ cm/s |
| O=C(Nc1cccc2c(C(=O)N[C@H]3c4ccccc4C[C@H]3C(=O)O)c[nH]c12)NC1CC1 (racemic) [ASAP-0000627] | 1.8 ×10⁻⁶ cm/s |

same assay, conditions: In vitro MDR1-MDCKII permeability, A to B, no inhibitor

| SMILES | papp_a_to_b_mean |
| --- | --- |
| COc1ccc(C(NC(=O)c2ncnc3[nH]ccc23)C(C)c2nnn[nH]2)cc1 (mixture of isomers) [ASAP-0010744] | 1.13 ×10⁻⁶ cm/s |

same assay, conditions: In vitro MDR1-MDCKII permeability, recovery A to B, mean

| SMILES | perc_recovery_a_to_b_mean |
| --- | --- |
| CC(C(=O)O)C(NC(=O)c1ncnc2[nH]ccc12)c1ccc(Br)cc1 (mixture of isomers) [ASAP-0008445] | 93.4% |
| COc1ccc2c(c1)CCN(c1ncnc3[nH]ccc13)[C@H]2C(C)C (racemic) [ASAP-0000502] | 32.0% |
| COc1ccc([C@H](CC(=O)O)NC(=O)c2ncnc3[nH]ccc23)cc1 (racemic) [ASAP-0000591] | 90.0% |
| O=C(Nc1cccc2c(C(=O)N[C@H]3c4ccccc4C[C@H]3C(=O)O)c[nH]c12)NC1CC1 (racemic) [ASAP-0000627] | 81.0% |

same assay, conditions: In vitro MDR1-MDCKII permeability, recovery A to B, no inhibitor

| SMILES | perc_recovery_a_to_b_mean |
| --- | --- |
| COc1ccc(C(NC(=O)c2ncnc3[nH]ccc23)C(C)c2nnn[nH]2)cc1 (mixture of isomers) [ASAP-0010744] | 93.6% |

tested on: not listed separately; test: Hepatic microsomal stability, MLM; type: in vitro ADME; settings: In vitro mouse liver microsomal stability

| SMILES | clint | perc_remaining | t_half |
| --- | --- | --- | --- |
| CC(C(=O)O)C(NC(=O)c1ncnc2[nH]ccc12)c1ccc(Br)cc1 (mixture of isomers) [ASAP-0008445] | 4.0 µL/min/mg | 94.0% | 433.2 min |
| COc1ccc(C(NC(=O)c2ncnc3[nH]ccc23)C(C)c2nnn[nH]2)cc1 (mixture of isomers) [ASAP-0010744] | 1.0 µL/min/mg | 99.0% | 2882.2 min |
| COc1ccc2c(c1)CCN(c1ncnc3[nH]ccc13)[C@H]2C(C)C (racemic) [ASAP-0000502] | 321.0 µL/min/mg | 1.0% | 5.2 min |
| COc1ccc([C@H](CC(=O)O)NC(=O)c2ncnc3[nH]ccc23)cc1 (racemic) [ASAP-0000591] | 2.0 µL/min/mg | 94.0% | 686.4 min |
| O=C(Nc1cccc2c(C(=O)N[C@H]3c4ccccc4C[C@H]3C(=O)O)c[nH]c12)NC1CC1 (racemic) [ASAP-0000627] | 4.0 µL/min/mg | 95.0% | 453.6 min |

same assay, conditions: In vitro mouse liver microsomal stability, no cofactor

| SMILES | perc_remaining_no_cofactor |
| --- | --- |
| CC(C(=O)O)C(NC(=O)c1ncnc2[nH]ccc12)c1ccc(Br)cc1 (mixture of isomers) [ASAP-0008445] | 109.0% |
| COc1ccc(C(NC(=O)c2ncnc3[nH]ccc23)C(C)c2nnn[nH]2)cc1 (mixture of isomers) [ASAP-0010744] | 92.0% |

same assay, conditions: In vitro mouse liver microsomal stability; no cofactor

| SMILES | perc_remaining_no_cofactor |
| --- | --- |
| COc1ccc2c(c1)CCN(c1ncnc3[nH]ccc13)[C@H]2C(C)C (racemic) [ASAP-0000502] | 83.0% |
| COc1ccc([C@H](CC(=O)O)NC(=O)c2ncnc3[nH]ccc23)cc1 (racemic) [ASAP-0000591] | 96.0% |
| O=C(Nc1cccc2c(C(=O)N[C@H]3c4ccccc4C[C@H]3C(=O)O)c[nH]c12)NC1CC1 (racemic) [ASAP-0000627] | 105.0% |
